From ChEMBL document CHEMBL5036363, “Discovery and Lead Optimization of Benzene-1,4-disulfonamides as Oxidative Phosphorylation Inhibitors” (J Med Chem, 2022)

What was measured:
Format in all cases: functional, cell-based
MIA PaCa-2 [1] = assay: Cytotoxicity against human MIA PaCa-2 cells assessed as inhibition of cell growth incubated for 7 days in glucose-containing medium by MTT assay; conditions: MIA PaCa-2, 168 h
BXPC-3 = assay: Cytotoxicity against human BXPC-3 cells assessed as inhibition of cell growth incubated for 7 days in glucose-containing medium by MTT assay; conditions: BXPC-3, 168 h
MIA PaCa-2 [2] = assay: Cytotoxicity against human MIA PaCa-2 cells assessed as inhibition of cell growth incubated for 3 days in glucose-containing medium by MTT assay; conditions: MIA PaCa-2, 72 h
MIA PaCa-2 [3] = assay: Cytotoxicity against human MIA PaCa-2 cells assessed as inhibition of cell growth incubated for 3 days in galactose-containing medium by MTT assay; conditions: MIA PaCa-2, 72 h

Row | SMILES | IC50 (MIA PaCa-2 [1]) [µM] | IC50 (BXPC-3) [µM] | IC50 (MIA PaCa-2 [2]) [µM] | IC50 (MIA PaCa-2 [3]) [µM]
1 | CCOC(=O)C1CCCCN1S(=O)(=O)c1ccc(S(=O)(=O)N(CC)CC)cc1 (configuration not stated) | 24.6 | 12.9 | > 3 | > 10
2 | CC(C)c1noc(N2CCN(C(=O)[C@@H]3CCCN(S(=O)(=O)c4ccc(S(=O)(=O)NC5CC5)cc4)C3)CC2)n1 | 1 | 6.7 | 0.3 | > 10
3 | CCCN(CC)S(=O)(=O)c1ccc(S(=O)(=O)N2CCC[C@@H](C(=O)OCC)C2)cc1 | 0.3 | 0.3 | – | –
4 | CCN(CC)C(=O)[C@@H]1CCCN(S(=O)(=O)c2ccc(S(=O)(=O)N(CC)CC)cc2)C1 | 6.4 | 10.5 | 0.7 | > 10
5 | CCN(CC)S(=O)(=O)c1ccc(S(=O)(=O)N2CCC[C@@H](c3nc(C)no3)C2)cc1 | 4.1 | 2.9 | 0.7 | > 10
6 | CCN(CC)S(=O)(=O)c1ccc(S(=O)(=O)N2CCC[C@@H](C(=O)N3CCN(c4nnc(C(C)C)o4)CC3)C2)cc1 | 1.8 | – | 1 | > 10
7 | CCOC(=O)[C@@H]1CCCN(S(=O)(=O)c2ccc3cc(S(=O)(=O)N(CC)CC)ccc3c2)C1 | 7.4 | 13.4 | > 3 | > 10
8 | CCOC(=O)[C@@H]1CCCN(S(=O)(=O)c2ccc(S(=O)(=O)N(CC)CC)c(F)c2)C1 | 0.9 | 1.6 | 0.2 | > 10
9 | CCOC(=O)[C@@H]1CCCN(S(=O)(=O)c2ccc(S(=N)(=O)N(CC)CC)cc2)C1 (some centres not stated) | 2.6 | 3.6 | 0.9 | > 10
10 | CCCN(CCC)S(=O)(=O)c1ccc(S(=O)(=O)N2CCC[C@@H](C(=O)OCC)C2)cc1 | 2.3 | 2.5 | 0.6 | > 10
11 | CCN(CC)S(=O)(=O)c1ccc(S(=O)(=O)N2CCC[C@@H](c3cc(C)no3)C2)cc1 | 4.9 | 7.7 | 2.7 | > 10
12 | CCN1CC(NC(=O)[C@@H]2CCCN(S(=O)(=O)c3ccc(S(=O)(=O)N(CC)CC)cc3)C2)C1 | > 30 | > 30 | > 10 | > 10
13 | CCOC(=O)C1CCN(S(=O)(=O)c2ccc(S(=O)(=O)N(CC)CC)cc2)CC1 | 27.2 | 23.1 | – | –
14 | CCOC(=O)[C@@H]1CCCN(S(=O)(=O)c2ccc(S(=O)(=O)N(CC)C(C)C)cc2)C1 | 1 | 1.6 | 1.2 | > 10
15 | CCOC(=O)[C@@H]1CCCN(S(=O)(=O)c2ccc(S(=O)(=O)N3CCCCC3)cc2)C1 | 2.9 | 3.3 | 1 | > 10
16 | CCN(CC)S(=O)(=O)c1ccc(S(=O)(=O)N2CCC[C@@H](C(=O)N3CCN(c4nc(C(F)(F)F)no4)CC3)C2)cc1 | 0.6 | – | 0.06 | > 10
17 | CCOC(=O)[C@@H]1CCCN(S(=O)(=O)c2ccc(S(=O)(=O)N(C)Cc3ccccc3)cc2)C1 | > 30 | > 30 | – | –
18 | CCOC(=O)[C@@H]1CCN(S(=O)(=O)c2ccc(S(=O)(=O)N(CC)CC)cc2)C1 | 8.6 | 10 | 1.5 | > 10
19 | CCN(CC)S(=O)(=O)c1ccc(S(=O)(=O)N2CCC[C@@H](C(=O)NC3CN(S(C)(=O)=O)C3)C2)cc1 | 2.5 | 7.4 | – | –
20 | CCOC(=O)[C@H]1CCN(S(=O)(=O)c2ccc(S(=O)(=O)N(CC)CC)cc2)C1 | 29.2 | 29.3 | > 10 | > 10
21 | CCN(CC)S(=O)(=O)c1ccc(S(=O)(=O)N2CCC[C@@H](C(=O)N3CC4(CN(C(=O)OC(C)(C)C)C4)C3)C2)cc1 | 0.4 | 1.1 | 0.3 | > 10
22 | CCN(CC)S(=O)(=O)c1ccc(S(=O)(=O)N2CCC[C@@H](C(=O)N3CCN(C(=O)OC(C)(C)C)CC3)C2)cc1 | 0.07 | 0.2 | 0.01 | > 10
23 | CCOC(=O)[C@@H]1CCC[C@H](S(=O)(=O)c2ccc(S(=O)(=O)N(CC)CC)cc2)C1 (relative stereo) | 21.5 | 25.2 | > 10 | > 10
24 | CCN(CC)S(=O)(=O)c1ccc(S(=O)(=O)N2CCC[C@@H](C(=O)N3CCN(c4nc(C)no4)CC3)C2)cc1 | 0.25 | – | 0.2 | > 10
25 | CCOC(=O)[C@@H]1CCCN(S(=O)(=O)c2ccc(S(=O)(=O)N(CC)CC)nc2)C1 | 5.6 | 8 | 1.6 | > 10
26 | CCOC(=O)[C@@H]1CCCN(S(=O)(=O)c2ccc(S(=O)(=O)N(C)C)cc2)C1 | 0.9 | 1 | 0.3 | > 10

Row | SMILES | IC50 (MIA PaCa-2 [1]) [µM] | IC50 (BXPC-3) [µM] | IC50 (MIA PaCa-2 [2]) [µM] | IC50 (MIA PaCa-2 [3]) [µM]
27 | CCN(CC)S(=O)(=O)c1ccc(S(=O)(=O)N2CCC[C@@H](C(=O)NC3CCN(C(=O)OC(C)(C)C)CC3)C2)cc1 | 0.1 | 0.3 | – | –
28 | CCOC(=O)[C@@H]1CCCN(S(=O)(=O)c2ccc(S(=O)(=O)N3CCNCC3)cc2)C1 | > 30 | > 30 | – | –
29 | CCOC(=O)[C@@H]1CCCN(S(=O)(=O)c2ccc(S(=O)(=O)N(CC)CC)cn2)C1 | 1.3 | 1.4 | 0.3 | > 10
30 | CCN(CC)S(=O)(=O)c1ccc(S(=O)(=O)N2CCC[C@@H](C(=O)NC3CC3)C2)cc1 | 4.6 | – | 1.1 | > 10
31 | CCOC(=O)N1CCC[C@@H](S(=O)(=O)c2ccc(S(=O)(=O)N(CC)CC)cc2)C1 | > 30 | > 30 | > 10 | > 10
32 | CCOC(=O)[C@@H]1CCCN(S(=O)(=O)c2cccc(S(=O)(=O)N(CC)CC)c2)C1 | > 30 | > 30 | > 10 | > 10
33 | CCOC(=O)[C@@H]1CCCN(S(=O)(=O)c2ccc(S(=O)(=O)N3CCOCC3)cc2)C1 | 23.5 | 23.4 | 4.1 | > 10
34 | CCN(CC)S(=O)(=O)c1ccc(S(=O)(=O)N2CCC[C@@H](C(=O)NC)C2)cc1 | 8.6 | 13.8 | 2 | > 10
35 | CCOC(=O)[C@@H]1C[C@@H](O)CN(S(=O)(=O)c2ccc(S(=O)(=O)N(CC)CC)cc2)C1 (relative stereo) | 7.9 | 10.8 | 2.1 | > 10
36 | CCOC(=O)[C@@H]1CCC[C@@H](S(=O)(=O)c2ccc(S(=O)(=O)N(CC)CC)cc2)C1 (relative stereo) | 16.4 | 18.5 | 5 | > 10
37 | CCN(CC)S(=O)(=O)c1ccc(S(=O)(=O)N2CCC[C@@H](C(=O)N3CCC(c4nc(C(C)C)no4)CC3)C2)cc1 | 0.04 | 0.3 | 0.03 | > 10
38 | CC(C)c1noc(N2CCN(C(=O)[C@@H]3CCCN(S(=O)(=O)c4ccc(S(=O)(=O)NC(C)(C)C)cc4)C3)CC2)n1 | 0.3 | 2.6 | 0.1 | > 10
39 | CCOC(=O)C12CC(CN(S(=O)(=O)c3ccc(S(=O)(=O)N(CC)CC)cc3)C1)C2 | 1 | 1.2 | 0.4 | > 10
40 | CCOC(=O)N1CCC[C@H](S(=O)(=O)c2ccc(S(=O)(=O)N(CC)CC)cc2)C1 | > 30 | > 30 | > 10 | > 10
41 | CC(C)c1noc(N2CCN(C(=O)[C@@H]3CCCN(S(=O)(=O)c4ccc(S(=O)(=O)NC5CCC5)cc4)C3)CC2)n1 | 0.6 | 3.3 | 0.2 | > 10
42 | CCN(CC)S(=O)(=O)c1ccc(S(=O)(=O)N2CCC[C@@H](C(=O)N[C@@H]3CCN(C(=O)OC(C)(C)C)C3)C2)cc1 | 0.2 | 0.4 | 0.5 | > 10
43 | CCN(CC)S(=O)(=O)c1ccc(S(=O)(=O)N2CCC[C@@H](C(=O)NC3CN(C(=O)C4CC4)C3)C2)cc1 | 2.8 | 18.5 | 3.1 | > 10
44 | CCN(CC)S(=O)(=O)c1ccc(S(=O)(=O)N2CCC[C@@H](C(=O)N3CC4(CCN(C(=O)OC(C)(C)C)C4)C3)C2)cc1 | 0.19 | 0.9 | 1.3 | > 10
45 | CCN(CC)S(=O)(=O)c1ccc(S(=O)(=O)N2CCC[C@@H](C(=O)N[C@H]3CCN(C(=O)OC(C)(C)C)C3)C2)cc1 | 0.1 | 0.3 | 0.17 | > 10
46 | CCOC(=O)[C@@H]1CCCN(S(=N)(=O)c2ccc(S(=O)(=O)N(CC)CC)cc2)C1 (some centres not stated) | 12.1 | 13.3 | 4.7 | > 10
47 | CCOC(=O)[C@@H]1CCCN(S(=O)(=O)c2ccc(S(=O)(=O)N(CC)CC)cc2C)C1 | 5.1 | 5.6 | 1.2 | > 10
48 | CCN(CC)S(=O)(=O)c1ccc(S(=O)(=O)N2CCC[C@@H](C(=O)N(C)C(C)C)C2)cc1 | 6.2 | 7.7 | 1.4 | > 10
49 | CCOC(=O)[C@@H]1CCCN(C(=O)c2ccc(S(=O)(=O)N(CC)CC)cc2)C1 | > 10 | > 10 | > 3 | > 10
50 | CCOC(=O)C1CN(S(=O)(=O)c2ccc(S(=O)(=O)N(CC)CC)cc2)C1 | 13.9 | 12.7 | 0.8 | > 10
51 | CCN(CC)S(=O)(=O)c1ccc(S(=O)(=O)N2CCC[C@@H](C(=O)NC3CN(C(=O)OC(C)(C)C)C3)C2)cc1 | 0.2 | 1.8 | 0.1 | > 10
52 | CCOC(=O)[C@@H]1CCCN(S(=O)(=O)c2ccc(C(=O)N(CC)CC)cc2)C1 | 0.8 | 0.64 | 0.1 | > 10
